Each structure is given as a SMILES string. Bridge positions count the residues as written; N and C are the ends. Peptide text beside a SMILES is read from it. Bounds are passed on as bounds.

As a reminder, the IC50 is the concentration at which inhibition is half-maximal. Low readings indicate higher potency, high ones lower potency.

Assay [1] concerns the target T1, integrin αvβ6 (Homo sapiens, UniProt P06756+P18564). Briefly: AlphaLISA competition assay vs LAP, biotinylated αvβ6. It is filed as binding.
For assay [2], the target named is T2, integrin αvβ8 (Homo sapiens, UniProt P06756+P26012). The experiment in a line: AlphaLISA competition assay vs LAP, biotinylated αvβ8. In kind it is binding.
Assay [3] concerns the target T3, integrin αvβ3 (Homo sapiens, UniProt P05106+P06756). The experiment in a line: AlphaLISA competition assay vs LAP, biotinylated αvβ3. In kind it is binding. A general note: In Alpha technology, singlet oxygen from a donor bead excites a nearby acceptor bead.
The target in assay [4] is T2, integrin αvβ8. The experiment in a line: ELISA competition assay, integrin αvβ8 binding to LAP.
Assay [5] addresses T3, integrin αvβ3. The experiment in a line: ELISA competition assay, integrin αvβ3. It is filed as binding.
For assay [6], the target named is T1, integrin αvβ6. Briefly: ELISA competition assay, integrin αvβ6 binding to LAP. The note with it: αvβ6 IC50, ELISA competition vs LAP; mean, n ≥ 3.

Regarding `CC[C@H](C)[C@H](NC(=O)CNC(=O)[C@@H](NC(=O)[C@H](Cc1ccccc1)NC(=O)[C@H](Cc1ccc(O)cc1)NC(=O)[C@@H]1CCC(=O)NCC(=O)NCC(=O)N[C@@H](C)C(=O)NCC(=O)N[C@@H](Cc2cnc[nH]2)C(=O)N[C@@H](C(C)C)C(=O)N2CCC[C@H]2C(=O)N1)C(C)C)C(=O)NCC(=O)N[C@H](C(=O)N1CCC[C@H]1C(=O)N[C@H](C(=O)N[C@@H](CO)C(=O)N[C@@H](Cc1ccccc1)C(=O)N[C@@H](Cc1ccc(O)cc1)C(=O)NCC(=O)O)[C@@H](C)CC)[C@@H](C)O` [lassotide 1, MccJ25, reference compound] (GGAGHVPEYFVGIGTPISFYG-OH; lactam N-8), the IC50 in assay [1], in assay [2] and in assay [3] was > 10000 nM each time.
With `CC[C@H](C)[C@H](NC(=O)[C@@H]1CCCN1C(=O)[C@H](CC(C)C)NC(=O)[C@H](CC(=O)O)NC(=O)CNC(=O)[C@H](CCCNC(=N)N)NC(=O)[C@@H](NC(=O)[C@H](Cc1ccccc1)NC(=O)[C@H](Cc1ccc(O)cc1)NC(=O)[C@@H]1CCC(=O)NCC(=O)NCC(=O)N[C@@H](C)C(=O)NCC(=O)N[C@@H](Cc2c[nH]cn2)C(=O)N[C@@H](C(C)C)C(=O)N2CCC[C@H]2C(=O)N1)C(C)C)C(=O)N[C@@H](CO)C(=O)N[C@@H](Cc1ccccc1)C(=O)N[C@@H](Cc1ccc(O)cc1)C(=O)NCC(=O)O` [lassotide 2] (GGAGHVPEYFVRGDLPISFYG-OH; lactam N-8; C-terminus assumed), the concentration for half-maximal inhibition (IC50) in assay [1] was 263 nM; in assay [3] it was 1 nM.
Regarding `CC[C@H](C)[C@H](NC(=O)[C@@H]1CCCN1C(=O)[C@H](Cc1ccccc1)NC(=O)[C@H](CC(=O)O)NC(=O)CNC(=O)[C@H](CCCNC(=N)N)NC(=O)[C@@H](NC(=O)[C@H](Cc1ccccc1)NC(=O)[C@H](Cc1ccc(O)cc1)NC(=O)[C@@H]1CCC(=O)NCC(=O)NCC(=O)N[C@@H](C)C(=O)NCC(=O)N[C@@H](Cc2c[nH]cn2)C(=O)N[C@@H](C(C)C)C(=O)N2CCC[C@H]2C(=O)N1)C(C)C)C(=O)N[C@@H](CO)C(=O)N[C@@H](Cc1ccccc1)C(=O)N[C@@H](Cc1ccc(O)cc1)C(=O)NCC(=O)O` [lassotide 3] (GGAGHVPEYFVRGDFPISFYG-OH; lactam N-8; C-terminus assumed), the results for the IC50 in assay [1], in assay [2] and in assay [3] were 253 nM, 295 nM and 1 nM, respectively.
Consider `CC[C@H](C)[C@H](NC(=O)[C@@H]1CCCN1C(=O)[C@@H](NC(=O)[C@H](CC(C)C)NC(=O)[C@H](CC(=O)O)NC(=O)CNC(=O)[C@H](CCCNC(=N)N)NC(=O)[C@H](Cc1ccccc1)NC(=O)[C@H](Cc1ccc(O)cc1)NC(=O)[C@@H]1CCC(=O)NCC(=O)NCC(=O)N[C@@H](C)C(=O)NCC(=O)N[C@@H](Cc2c[nH]cn2)C(=O)N[C@@H](C(C)C)C(=O)N2CCC[C@H]2C(=O)N1)[C@@H](C)O)C(=O)N[C@@H](CO)C(=O)N[C@@H](Cc1ccccc1)C(=O)N[C@@H](Cc1ccc(O)cc1)C(=O)NCC(=O)O` [lassotide 7] (GGAGHVPEYFRGDLTPISFYG-OH; lactam N-8; C-terminus assumed), for which the values for the 50% inhibitory concentration (IC50) in assay [1], in assay [2] and in assay [3] were 2040 nM, 485 nM and 571 nM, respectively.
For `CC[C@H](C)[C@H](NC(=O)[C@H](CC(C)C)NC(=O)[C@H](CC(=O)O)NC(=O)CNC(=O)[C@H](CCCNC(=N)N)NC(=O)CNC(=O)[C@@H](NC(=O)[C@H](Cc1ccccc1)NC(=O)[C@H](Cc1ccc(O)cc1)NC(=O)[C@@H]1CCC(=O)NCC(=O)NCC(=O)N[C@@H](C)C(=O)NCC(=O)N[C@@H](Cc2c[nH]cn2)C(=O)N[C@@H](C(C)C)C(=O)N2CCC[C@H]2C(=O)N1)C(C)C)C(=O)N[C@@H](CO)C(=O)N[C@@H](Cc1ccccc1)C(=O)N[C@@H](Cc1ccc(O)cc1)C(=O)NCC(=O)O` [lassotide 8] (GGAGHVPEYFVGRGDLISFYG-OH; lactam N-8; C-terminus assumed), the 50% inhibitory concentration (IC50) in assay [1] was found to be 478 nM; in assay [2] it was 466 nM; in assay [3], 2560 nM.
Consider `CC[C@H](C)[C@H](NC(=O)[C@@H]1CCCN1C(=O)[C@@H](NC(=O)[C@H](CCCNC(=N)N)NC(=O)CNC(=O)[C@H](CC(=O)O)NC(=O)[C@H](CC(C)C)NC(=O)[C@H](Cc1ccccc1)NC(=O)[C@H](Cc1ccc(O)cc1)NC(=O)[C@@H]1CCC(=O)NCC(=O)NCC(=O)N[C@@H](C)C(=O)NCC(=O)N[C@@H](Cc2c[nH]cn2)C(=O)N[C@@H](C(C)C)C(=O)N2CCC[C@H]2C(=O)N1)[C@@H](C)O)C(=O)N[C@@H](CO)C(=O)N[C@@H](Cc1ccccc1)C(=O)N[C@@H](Cc1ccc(O)cc1)C(=O)NCC(=O)O` [lassotide 9] (GGAGHVPEYFLDGRTPISFYG-OH; lactam N-8; C-terminus assumed), for which the half-inhibitory concentration (IC50) was > 10000 nM in assay [1], 1300 nM in assay [2] and > 10000 nM in assay [3].
As to `CC[C@H](C)[C@H](NC(=O)[C@@H]1CCCN1C(=O)[C@H](CC(C)C)NC(=O)[C@H](CC(=O)O)NC(=O)[C@@H]1CCCN1C(=O)[C@H](CCCNC(=N)N)NC(=O)[C@@H](NC(=O)[C@H](Cc1ccccc1)NC(=O)[C@H](Cc1ccc(O)cc1)NC(=O)[C@@H]1CCC(=O)NCC(=O)NCC(=O)N[C@@H](C)C(=O)NCC(=O)N[C@@H](Cc2c[nH]cn2)C(=O)N[C@@H](C(C)C)C(=O)N2CCC[C@H]2C(=O)N1)C(C)C)C(=O)N[C@@H](CO)C(=O)N[C@@H](Cc1ccccc1)C(=O)N[C@@H](Cc1ccc(O)cc1)C(=O)NCC(=O)O` [lassotide 10] (GGAGHVPEYFVRPDLPISFYG-OH; lactam N-8; C-terminus assumed), the IC50 in assay [1], in assay [2] and in assay [3] was > 10000 nM throughout.
`CC[C@H](C)[C@H](NC(=O)CNC(=O)[C@@H](NC(=O)[C@H](Cc1ccccc1)NC(=O)[C@H](Cc1ccc(O)cc1)NC(=O)[C@@H]1CCC(=O)NCC(=O)NCC(=O)N[C@@H](CCCNC(=N)N)C(=O)NCC(=O)N[C@@H](CC(=O)O)C(=O)N[C@@H](CC(C)C)C(=O)N2CCC[C@H]2C(=O)N1)C(C)C)C(=O)NCC(=O)N[C@H](C(=O)N1CCC[C@H]1C(=O)N[C@H](C(=O)N[C@@H](CO)C(=O)N[C@@H](Cc1ccccc1)C(=O)N[C@@H](Cc1ccc(O)cc1)C(=O)NCC(=O)O)[C@@H](C)CC)[C@@H](C)O` [lassotide 11] (GGRGDLPEYFVGIGTPISFYG-OH; lactam N-8; C-terminus assumed): the half-inhibitory concentration (IC50) in assay [1], in assay [2] and in assay [3] was > 10000 nM each time.
As to `CC[C@H](C)[C@@H]1NC(=O)[C@H]([C@@H](C)CC)NC(=O)[C@@H]2CCCN2C(=O)CNC(=O)[C@H](CC(=O)O)NC(=O)[C@H](CO)NC(=O)CNC(=O)CC[C@@H](C(=O)N[C@@H](Cc2ccccc2)C(=O)N[C@@H](CCCNC(=N)N)C(=O)NCC(=O)N[C@@H](CC(=O)O)C(=O)N[C@@H](CC(C)C)C(=O)NCC(=O)N[C@H](C(=O)N[C@@H](CCSC)C(=O)N[C@@H](Cc2c[nH]cn2)C(=O)N[C@@H](Cc2ccc(O)cc2)C(=O)NCC(=O)O)C(C)C)NC1=O` [lassotide 16] (GSDGPIIEFRGDLGVMHYG-OH; lactam N-8; C-terminus assumed), the IC50 in assay [4] worked out at 214 nM; in assay [5], 1060 nM; in assay [6], 30 nM.
Take `CC[C@H](C)[C@@H]1NC(=O)[C@H](CO)NC(=O)CC[C@@H](C(=O)N[C@@H](CO)C(=O)N[C@@H](CCSC)C(=O)N[C@@H](CO)C(=O)N[C@@H](CO)C(=O)N[C@@H](CCC(N)=O)C(=O)N[C@H](C(=O)N[C@@H](Cc2ccc(O)cc2)C(=O)N[C@@H](Cc2c[nH]c3ccccc23)C(=O)N2CCC[C@H]2C(=O)O)[C@@H](C)O)NC(=O)[C@H](CCCNC(=N)N)NC(=O)[C@H](CC(C)C)NC(=O)CNC(=O)[C@H](CO)NC(=O)[C@H](CC(=O)O)NC(=O)CNC1=O` [lassotide 17, caulonodin V, reference compound] (SIGDSGLRESMSSQTYWP-OH; lactam N-9; C-terminus assumed): the IC50 in assay [4], in assay [5] and in assay [6] was > 10000 nM each time.
